Experiment in all cases: biochemical
Holding throughout (format): biochemical

For test [1], the target named is T1, 382 unique human kinases (Homo sapiens, UniProt Q8WTQ7).
T1 construct: purchased Reaction Biology (HotSpot contract assay)
T1 sequence (Q8WTQ7 1-553): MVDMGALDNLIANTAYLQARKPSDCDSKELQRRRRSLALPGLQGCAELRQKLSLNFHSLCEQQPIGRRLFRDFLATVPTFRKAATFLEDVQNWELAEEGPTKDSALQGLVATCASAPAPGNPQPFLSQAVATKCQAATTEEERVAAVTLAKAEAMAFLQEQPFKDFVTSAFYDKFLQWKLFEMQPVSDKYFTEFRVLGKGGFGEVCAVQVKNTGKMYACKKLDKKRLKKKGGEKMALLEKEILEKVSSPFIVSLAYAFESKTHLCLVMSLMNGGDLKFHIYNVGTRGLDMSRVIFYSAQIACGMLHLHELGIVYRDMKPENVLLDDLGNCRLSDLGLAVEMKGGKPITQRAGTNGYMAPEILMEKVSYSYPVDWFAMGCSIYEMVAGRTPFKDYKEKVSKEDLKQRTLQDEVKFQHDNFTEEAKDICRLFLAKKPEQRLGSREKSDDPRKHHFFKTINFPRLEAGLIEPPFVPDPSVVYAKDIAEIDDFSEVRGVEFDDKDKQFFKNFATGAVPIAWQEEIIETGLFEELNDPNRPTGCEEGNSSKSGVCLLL
The note with it: GRK7, 10 uM; for remaining activity at 10 µM: read-out: % Enzyme Activity (relative to DMSO controls).

For test [2], the target named is T2, 382 unique human kinases (Homo sapiens, UniProt Q9UKE5).
T2 construct: purchased Reaction Biology (HotSpot contract assay)
As to conditions: TNIK, 10 uM; for remaining activity at 10 µM: read-out: % Enzyme Activity (relative to DMSO controls).

In test [3] the target is T3, 382 unique human kinases (Homo sapiens, UniProt Q07002).
T3 construct: purchased Reaction Biology (HotSpot contract assay)
T3 sequence (Q07002 whole entry): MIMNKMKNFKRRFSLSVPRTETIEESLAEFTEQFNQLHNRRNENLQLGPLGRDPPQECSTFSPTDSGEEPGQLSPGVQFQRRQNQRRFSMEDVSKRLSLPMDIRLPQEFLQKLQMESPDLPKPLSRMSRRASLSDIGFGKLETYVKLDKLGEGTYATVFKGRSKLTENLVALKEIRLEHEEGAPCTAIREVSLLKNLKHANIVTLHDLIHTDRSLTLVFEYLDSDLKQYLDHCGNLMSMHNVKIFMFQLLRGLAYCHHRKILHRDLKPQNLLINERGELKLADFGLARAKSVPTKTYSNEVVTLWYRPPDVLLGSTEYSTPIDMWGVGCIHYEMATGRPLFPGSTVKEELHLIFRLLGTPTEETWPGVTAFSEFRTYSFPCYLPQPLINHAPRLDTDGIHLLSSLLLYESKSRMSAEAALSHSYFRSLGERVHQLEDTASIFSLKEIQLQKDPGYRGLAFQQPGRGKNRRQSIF
As to conditions: CDK18/cyclin Y (PCTK3), compound at 10 uM, duplicate values; for remaining activity at 10 µM: read-out: % Enzyme Activity (relative to DMSO controls).

In test [4] the target is T4, 382 unique human kinases (Homo sapiens, UniProt P16591).
T4 construct: purchased Reaction Biology (HotSpot contract assay)
As to conditions: kinase FER, compound 10 uM; for remaining activity at 10 µM: read-out: % Enzyme Activity (relative to DMSO controls).

For test [5], the target named is T5, 382 unique human kinases (Homo sapiens, UniProt Q9UM73, F1174L).
T5 construct: purchased Reaction Biology (HotSpot contract assay)
The note with it: ALK (F1174L), 10 uM; for remaining activity at 10 µM: read-out: % Enzyme Activity (relative to DMSO controls).

Test [6] deals with T6, 382 unique human kinases (Homo sapiens, UniProt Q16832, T654M).
T6 construct: purchased Reaction Biology (HotSpot contract assay)
T6 sequence (Q16832 22-855 T654M): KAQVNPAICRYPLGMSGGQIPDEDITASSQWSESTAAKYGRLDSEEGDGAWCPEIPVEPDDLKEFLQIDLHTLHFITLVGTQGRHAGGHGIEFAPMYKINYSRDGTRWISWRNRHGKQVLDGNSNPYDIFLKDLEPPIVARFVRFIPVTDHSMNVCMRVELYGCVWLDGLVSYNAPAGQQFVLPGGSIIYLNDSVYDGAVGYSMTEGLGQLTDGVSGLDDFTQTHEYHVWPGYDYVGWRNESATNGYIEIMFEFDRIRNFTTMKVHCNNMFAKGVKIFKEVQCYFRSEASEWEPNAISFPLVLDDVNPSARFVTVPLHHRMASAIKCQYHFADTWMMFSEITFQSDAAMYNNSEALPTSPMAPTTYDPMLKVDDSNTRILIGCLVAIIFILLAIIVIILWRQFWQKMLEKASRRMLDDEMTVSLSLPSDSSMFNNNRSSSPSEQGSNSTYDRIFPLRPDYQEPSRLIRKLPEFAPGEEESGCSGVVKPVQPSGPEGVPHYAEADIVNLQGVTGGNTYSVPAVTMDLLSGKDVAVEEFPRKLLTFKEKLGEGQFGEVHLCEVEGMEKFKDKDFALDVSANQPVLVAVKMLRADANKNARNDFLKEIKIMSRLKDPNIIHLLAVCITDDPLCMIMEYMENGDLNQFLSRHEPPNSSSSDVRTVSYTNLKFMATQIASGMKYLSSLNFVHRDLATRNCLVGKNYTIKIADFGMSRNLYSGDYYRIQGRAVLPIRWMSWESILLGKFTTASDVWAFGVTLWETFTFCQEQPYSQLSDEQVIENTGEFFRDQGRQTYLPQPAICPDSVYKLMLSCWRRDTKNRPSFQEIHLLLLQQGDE
The note with it: DDR2 (T654M), 10 uM; for remaining activity at 10 µM: read-out: % Enzyme Activity (relative to DMSO controls).

Test [7] deals with T7, 382 unique human kinases (Homo sapiens, UniProt O96017).
T7 construct: purchased Reaction Biology (HotSpot contract assay)
The note with it: kinase CHK2, compound 10 uM; for remaining activity at 10 µM: read-out: % Enzyme Activity (relative to DMSO controls).

In test [8] the target is T8, 382 unique human kinases (Homo sapiens, UniProt P07949, S891A).
T8 construct: purchased Reaction Biology (HotSpot contract assay)
T8 sequence (P07949 29-1114 S891A): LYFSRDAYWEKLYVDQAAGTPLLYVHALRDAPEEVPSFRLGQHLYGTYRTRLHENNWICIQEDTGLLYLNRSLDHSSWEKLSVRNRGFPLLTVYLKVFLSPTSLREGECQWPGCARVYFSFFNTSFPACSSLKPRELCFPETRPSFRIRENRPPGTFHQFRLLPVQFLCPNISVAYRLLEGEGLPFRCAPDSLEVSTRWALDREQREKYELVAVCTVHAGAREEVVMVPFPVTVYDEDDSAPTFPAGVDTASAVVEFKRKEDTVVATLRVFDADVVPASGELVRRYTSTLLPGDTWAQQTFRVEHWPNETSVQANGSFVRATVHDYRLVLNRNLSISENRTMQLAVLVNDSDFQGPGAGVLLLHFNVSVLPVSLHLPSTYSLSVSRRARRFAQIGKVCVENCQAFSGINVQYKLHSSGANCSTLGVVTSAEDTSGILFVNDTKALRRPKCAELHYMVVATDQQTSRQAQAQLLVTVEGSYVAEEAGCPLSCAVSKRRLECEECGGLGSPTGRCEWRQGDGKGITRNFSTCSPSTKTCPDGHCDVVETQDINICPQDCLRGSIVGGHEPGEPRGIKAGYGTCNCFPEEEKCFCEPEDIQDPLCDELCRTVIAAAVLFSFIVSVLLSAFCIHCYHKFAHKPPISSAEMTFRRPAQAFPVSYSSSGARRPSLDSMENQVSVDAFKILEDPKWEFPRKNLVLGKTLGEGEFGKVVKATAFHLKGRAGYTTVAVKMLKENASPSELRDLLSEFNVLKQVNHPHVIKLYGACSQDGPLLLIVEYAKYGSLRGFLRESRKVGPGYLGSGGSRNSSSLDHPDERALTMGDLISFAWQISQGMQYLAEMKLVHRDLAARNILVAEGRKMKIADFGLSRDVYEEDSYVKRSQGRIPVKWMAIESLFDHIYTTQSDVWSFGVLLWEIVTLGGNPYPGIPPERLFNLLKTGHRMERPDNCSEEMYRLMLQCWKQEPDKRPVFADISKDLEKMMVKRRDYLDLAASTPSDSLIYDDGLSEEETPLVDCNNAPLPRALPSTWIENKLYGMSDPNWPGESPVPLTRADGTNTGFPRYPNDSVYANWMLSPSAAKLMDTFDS
As to conditions: RET (S891A), [ATP] 5 µM, compound 10 uM; for remaining activity at 10 µM: read-out: % Enzyme Activity (relative to DMSO controls).

Test [9] concerns the target T9, 382 unique human kinases (Homo sapiens, UniProt P29317).
T9 construct: purchased Reaction Biology (HotSpot contract assay)
As to conditions: EPHA2, [ATP] 50 µM, compound 10 uM; for remaining activity at 10 µM: read-out: % Enzyme Activity (relative to DMSO controls).

In test [10] the target is T10, 382 unique human kinases (Homo sapiens, UniProt P22455, N535K).
T10 construct: purchased Reaction Biology (HotSpot contract assay)
T10 sequence (P22455 22-802 N535K): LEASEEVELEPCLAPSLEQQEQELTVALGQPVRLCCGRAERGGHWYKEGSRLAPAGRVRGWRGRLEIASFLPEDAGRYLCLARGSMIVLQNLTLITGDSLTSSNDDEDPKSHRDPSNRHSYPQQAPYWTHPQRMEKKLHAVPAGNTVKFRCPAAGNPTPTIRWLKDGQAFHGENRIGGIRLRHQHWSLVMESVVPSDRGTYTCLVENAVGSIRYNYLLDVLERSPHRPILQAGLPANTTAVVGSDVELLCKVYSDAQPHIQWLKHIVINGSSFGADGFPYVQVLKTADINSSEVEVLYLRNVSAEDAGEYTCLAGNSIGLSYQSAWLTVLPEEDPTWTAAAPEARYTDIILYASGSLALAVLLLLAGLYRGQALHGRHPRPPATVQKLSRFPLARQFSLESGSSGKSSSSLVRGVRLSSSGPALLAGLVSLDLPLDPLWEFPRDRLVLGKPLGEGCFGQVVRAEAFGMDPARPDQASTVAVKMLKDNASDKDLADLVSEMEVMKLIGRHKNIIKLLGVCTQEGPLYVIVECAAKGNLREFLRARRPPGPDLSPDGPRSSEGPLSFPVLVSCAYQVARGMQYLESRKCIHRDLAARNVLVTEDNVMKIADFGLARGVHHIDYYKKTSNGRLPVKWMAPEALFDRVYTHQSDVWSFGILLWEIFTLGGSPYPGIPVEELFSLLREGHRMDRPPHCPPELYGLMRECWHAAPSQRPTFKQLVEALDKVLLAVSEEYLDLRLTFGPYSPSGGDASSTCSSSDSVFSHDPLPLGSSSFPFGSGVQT
The note with it: FGFR4 (N535K), 10 uM; for remaining activity at 10 µM: read-out: % Enzyme Activity (relative to DMSO controls).

Test [11] addresses T11, 382 unique human kinases (Homo sapiens, UniProt P00519, F317I).
T11 construct: purchased Reaction Biology (HotSpot contract assay)
The note with it: ABL1 (F317I), [ATP] 5 µM, compound 10 uM; for remaining activity at 10 µM: read-out: % Enzyme Activity (relative to DMSO controls).

For test [12], the target named is T12, 382 unique human kinases (Homo sapiens, UniProt O15075).
T12 construct: purchased Reaction Biology (HotSpot contract assay)
T12 sequence (O15075 whole entry): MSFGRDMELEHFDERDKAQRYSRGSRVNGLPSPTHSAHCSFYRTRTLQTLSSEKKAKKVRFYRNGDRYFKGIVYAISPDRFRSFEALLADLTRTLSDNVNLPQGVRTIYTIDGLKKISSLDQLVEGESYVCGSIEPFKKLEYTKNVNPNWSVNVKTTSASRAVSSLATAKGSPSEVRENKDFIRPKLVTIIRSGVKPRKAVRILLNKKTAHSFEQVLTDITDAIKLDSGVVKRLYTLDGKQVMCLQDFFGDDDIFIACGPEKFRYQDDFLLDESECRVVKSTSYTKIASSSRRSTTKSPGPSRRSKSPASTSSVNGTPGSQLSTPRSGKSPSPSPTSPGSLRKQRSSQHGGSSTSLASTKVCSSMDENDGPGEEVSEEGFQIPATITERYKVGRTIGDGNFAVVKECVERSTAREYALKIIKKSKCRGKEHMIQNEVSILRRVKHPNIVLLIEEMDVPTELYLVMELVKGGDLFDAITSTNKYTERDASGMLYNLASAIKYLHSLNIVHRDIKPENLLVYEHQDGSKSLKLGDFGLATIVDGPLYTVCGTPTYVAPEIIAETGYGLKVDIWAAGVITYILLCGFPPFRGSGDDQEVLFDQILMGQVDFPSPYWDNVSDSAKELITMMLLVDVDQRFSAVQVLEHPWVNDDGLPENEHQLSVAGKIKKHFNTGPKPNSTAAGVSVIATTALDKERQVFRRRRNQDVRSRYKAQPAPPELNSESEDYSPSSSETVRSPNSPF
As to conditions: DCAMKL1, 10 uM; for remaining activity at 10 µM: read-out: % Enzyme Activity (relative to DMSO controls).

Test [13] has as its target T13, 382 unique human kinases (Homo sapiens, UniProt P51812, I416V).
T13 construct: purchased Reaction Biology (HotSpot contract assay)
As to conditions: RSK2 (I416V), [ATP] 10 µM, compound 10 uM; for remaining activity at 10 µM: read-out: % Enzyme Activity (relative to DMSO controls).

Test [14] addresses T14, 382 unique human kinases (Homo sapiens, UniProt P49841).
T14 construct: purchased Reaction Biology (HotSpot contract assay)
The note with it: GSK3b, [ATP] 10 µM, compound 10 uM; for remaining activity at 10 µM: read-out: % Enzyme Activity (relative to DMSO controls).

Test [15] concerns the target T15, 382 unique human kinases (Homo sapiens, UniProt P35916).
T15 construct: purchased Reaction Biology (HotSpot contract assay)
As to conditions: FLT4/VEGFR3, [ATP] 5 µM, compound 10 uM; for remaining activity at 10 µM: read-out: % Enzyme Activity (relative to DMSO controls).

For test [16], the target named is T16, 382 unique human kinases (Homo sapiens, UniProt P49840).
T16 construct: purchased Reaction Biology (HotSpot contract assay)
T16 sequence (P49840 whole entry): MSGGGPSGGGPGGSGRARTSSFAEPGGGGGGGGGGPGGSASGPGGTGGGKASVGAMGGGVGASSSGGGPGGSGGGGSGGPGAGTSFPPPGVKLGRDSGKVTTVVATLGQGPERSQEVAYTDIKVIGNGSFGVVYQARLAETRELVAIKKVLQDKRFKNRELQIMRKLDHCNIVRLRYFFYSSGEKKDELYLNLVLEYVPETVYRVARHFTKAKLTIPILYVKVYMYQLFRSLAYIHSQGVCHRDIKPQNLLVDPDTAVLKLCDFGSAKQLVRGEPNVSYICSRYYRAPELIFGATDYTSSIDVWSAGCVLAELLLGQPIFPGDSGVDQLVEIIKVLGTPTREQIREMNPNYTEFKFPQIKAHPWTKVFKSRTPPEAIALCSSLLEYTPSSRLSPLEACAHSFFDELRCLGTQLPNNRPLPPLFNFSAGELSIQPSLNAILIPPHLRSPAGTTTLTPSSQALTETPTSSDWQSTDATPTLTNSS
As to conditions: GSK3a, [ATP] 30 µM, compound 10 uM; for remaining activity at 10 µM: read-out: % Enzyme Activity (relative to DMSO controls).

In test [17] the target is T17, 382 unique human kinases (Homo sapiens, UniProt Q9HAZ1).
T17 construct: purchased Reaction Biology (HotSpot contract assay)
The note with it: CLK4, [ATP] 2.5 µM, compound 10 uM; for remaining activity at 10 µM: read-out: % Enzyme Activity (relative to DMSO controls).

T13 sequence (P51812 whole entry I416V): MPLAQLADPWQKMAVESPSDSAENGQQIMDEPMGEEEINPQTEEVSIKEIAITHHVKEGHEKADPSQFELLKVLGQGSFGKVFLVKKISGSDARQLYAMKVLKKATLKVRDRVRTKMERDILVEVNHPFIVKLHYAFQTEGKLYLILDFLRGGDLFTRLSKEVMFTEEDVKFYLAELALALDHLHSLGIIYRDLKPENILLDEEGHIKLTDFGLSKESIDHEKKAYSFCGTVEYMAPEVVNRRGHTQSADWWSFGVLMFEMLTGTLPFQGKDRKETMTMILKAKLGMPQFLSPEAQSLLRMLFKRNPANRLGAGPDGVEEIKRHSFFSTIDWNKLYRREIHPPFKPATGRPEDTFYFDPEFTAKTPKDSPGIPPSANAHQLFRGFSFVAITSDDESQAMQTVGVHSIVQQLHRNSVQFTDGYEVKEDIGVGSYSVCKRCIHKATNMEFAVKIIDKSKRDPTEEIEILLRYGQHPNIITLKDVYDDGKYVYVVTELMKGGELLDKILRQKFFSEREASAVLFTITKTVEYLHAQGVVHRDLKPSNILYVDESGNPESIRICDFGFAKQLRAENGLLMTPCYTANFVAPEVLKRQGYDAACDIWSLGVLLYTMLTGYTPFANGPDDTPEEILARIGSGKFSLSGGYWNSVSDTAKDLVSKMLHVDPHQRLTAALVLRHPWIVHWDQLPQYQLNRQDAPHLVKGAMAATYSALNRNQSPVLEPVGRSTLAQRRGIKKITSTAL
T14 sequence (P49841 whole entry): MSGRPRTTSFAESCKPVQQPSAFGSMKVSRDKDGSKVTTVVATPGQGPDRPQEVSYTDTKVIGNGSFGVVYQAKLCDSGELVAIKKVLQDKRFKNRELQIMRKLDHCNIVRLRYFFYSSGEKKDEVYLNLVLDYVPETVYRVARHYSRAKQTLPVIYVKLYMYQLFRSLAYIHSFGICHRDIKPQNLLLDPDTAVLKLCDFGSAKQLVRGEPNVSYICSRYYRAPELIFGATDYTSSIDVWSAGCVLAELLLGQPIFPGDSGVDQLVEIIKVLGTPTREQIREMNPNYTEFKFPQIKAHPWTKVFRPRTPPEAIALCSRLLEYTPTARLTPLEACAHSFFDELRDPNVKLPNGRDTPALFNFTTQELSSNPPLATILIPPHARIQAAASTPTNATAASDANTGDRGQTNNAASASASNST

Take `CC(C)c1cc(-c2n[nH]c(=O)n2-c2ccc3c(ccn3C)c2)c(O)cc1O` [Ganetespib (STA9090)]: the remaining activity at 10 µM turned out to be 75.4% at 382 unique human kinases [1]; 62.6% at 382 unique human kinases [2]; 107% at 382 unique human kinases [3]; 82.6% at 382 unique human kinases [4]; 63.6% on 382 unique human kinases [5]; 75% on 382 unique human kinases [6]. In addition, the remaining activity at 10 µM on 382 unique human kinases [7] amounted to 84.6%.

As for `CC(C)c1cc(-c2n[nH]c(=O)n2-c2ccc3c(ccn3C)c2)c(O)cc1O` [Ganetespib], the remaining activity at 10 µM at 382 unique human kinases [8] was 20.2%; on 382 unique human kinases [9], 43.5%; on 382 unique human kinases [10], 101%; on 382 unique human kinases [11], 2.88%; on 382 unique human kinases [12], 113%; on 382 unique human kinases [13] it was 56.7%. Further, the remaining activity at 10 µM at 382 unique human kinases [14] was determined as 29.4%; on 382 unique human kinases [15], 47.4%; on 382 unique human kinases [16], 21.9%; on 382 unique human kinases [17], 20.7%.

Take `CCNC(=O)c1noc(-c2cc(C(C)C)c(O)cc2O)c1-c1ccc(CN2CCOCC2)cc1` [Luminespib (AUY-922)]: the “% Enzyme Activity (relative to DMSO controls)” value on 382 unique human kinases [1] amounted to 95.66%; on 382 unique human kinases [2], 95.71%; on 382 unique human kinases [3], 109.58%; on 382 unique human kinases [4] it was 101.55%; on 382 unique human kinases [5], 104.30%; on 382 unique human kinases [6] it was 100.41%. For the same molecule, the “% Enzyme Activity (relative to DMSO controls)” value on 382 unique human kinases [7] is 102.76%. For the same molecule, the remaining activity at 10 µM at 382 unique human kinases [1] was determined as 96.7%; on 382 unique human kinases [2] it was 96.6%; on 382 unique human kinases [3], 111%; on 382 unique human kinases [4], 102%; on 382 unique human kinases [5], 104%; on 382 unique human kinases [6] it was 102%. Besides, the remaining activity at 10 µM at 382 unique human kinases [7] was found to be 104%.

`CCNC(=O)c1noc(-c2cc(C(C)C)c(O)cc2O)c1-c1ccc(CN2CCOCC2)cc1` [Luminespib]: the “% Enzyme Activity (relative to DMSO controls)” value was determined as 88.26% on 382 unique human kinases [8]; 92.01% on 382 unique human kinases [9]; 97.33% at 382 unique human kinases [10]; 24.59% at 382 unique human kinases [11]; 95.95% at 382 unique human kinases [12]; 87.06% at 382 unique human kinases [13]. Further, the “% Enzyme Activity (relative to DMSO controls)” value at 382 unique human kinases [14] was found to be 110.01%; at 382 unique human kinases [15] it was 95.96%; at 382 unique human kinases [16] it was 93.84%; at 382 unique human kinases [17] it was 71.69%. Moreover, the remaining activity at 10 µM on 382 unique human kinases [8] was found to be 89.3%; at 382 unique human kinases [9], 92.4%; at 382 unique human kinases [10], 101%; at 382 unique human kinases [11], 25.7%; at 382 unique human kinases [12], 96.9%; on 382 unique human kinases [13], 88.9%. Besides, the remaining activity at 10 µM came out at 110% on 382 unique human kinases [14], 96% at 382 unique human kinases [15], 96.4% on 382 unique human kinases [16] and 72.1% on 382 unique human kinases [17].

These data come from article PMC8550792, “Evolution of kinase polypharmacology across HSP90 drug discovery” (Cell Chemical Biology, 2021).
